Consider one compound from ChEMBL document CHEMBL4257084, “Novel functionalized 5-(phenoxymethyl)-1,3-dioxane analogs exhibiting cytochrome p450 inhibition and their method of use” (2016).

For this test, the target named is T1, Cytochrome P450 11B1, mitochondrial (Homo sapiens, UniProt P15538).
T1 sequence (P15538 whole entry): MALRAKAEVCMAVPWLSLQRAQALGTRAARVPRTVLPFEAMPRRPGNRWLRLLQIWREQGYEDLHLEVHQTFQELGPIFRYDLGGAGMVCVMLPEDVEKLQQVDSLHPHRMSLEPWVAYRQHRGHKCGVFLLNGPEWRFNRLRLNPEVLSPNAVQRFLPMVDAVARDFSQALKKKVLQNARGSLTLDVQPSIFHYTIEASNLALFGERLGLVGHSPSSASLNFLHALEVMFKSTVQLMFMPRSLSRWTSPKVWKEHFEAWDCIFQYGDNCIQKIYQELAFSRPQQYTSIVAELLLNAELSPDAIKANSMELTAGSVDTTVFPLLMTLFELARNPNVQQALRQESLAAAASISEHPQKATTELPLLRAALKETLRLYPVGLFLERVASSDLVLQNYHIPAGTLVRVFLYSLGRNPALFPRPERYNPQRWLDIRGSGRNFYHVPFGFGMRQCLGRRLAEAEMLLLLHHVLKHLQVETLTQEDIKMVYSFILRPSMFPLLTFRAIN
Nature of the test: Inhibition of recombinant CYP11 (unknown origin) expressed in human AD293 cells assessed as reduction in cortisol level preincubated for 60 mins followed by 11-deoxy cortisol substrate addition and measured after 12 hrs by LC-MS method. It counts as cell-based.

`CS(=O)(=O)N1CCN(c2ccc(CO[C@H]3CO[C@@](Cn4ccnc4)(c4ccccc4Cl)OC3)cc2)CC1`: the IC50 was found to be 10 µM.
